Assay results reported in patent publication US20180002319A1, “MACROCYCLIC PICOLINAMIDE COMPOUNDS WITH FUNGICIDAL ACTIVITY” (DOW AGROSCIENCES LLC, priority 2014, published 2018).
Like-named read-outs stand apart in the source and are kept apart here.

What was measured:
Puccinia triticina = assay: Wheat Brown Rust (PUCCRT) fungicidal activity; type: in vivo; details: for pest or weed control at 121.5 g/ha: Low Volume application, 121.5 g/H
Method: (§1) Technical grades of materials were dissolved in acetone, which were then mixed with nine volumes of H2O containing 110 ppm Triton X-100. The fungicide solutions were applied onto wheat seedlings using an automated booth sprayer to run-off. All sprayed plants were allowed to air dry prior to further handling. All fungicides were evaluated using the aforementioned method for their activity vs. all target diseases, unless stated otherwise. Wheat leaf blotch and brown rust activity were also evaluated using track spray applications, in which case the fungicides were formulated as EC formulations, containing 0.1% Trycol 5941 in the spray solutions. Wheat plants (variety Yuma) were grown from seed in a greenhouse in 50% mineral soil/50% soil-less Metro mix until the first leaf was fully emerged, with 7-10 seedlings per pot. These plants were inoculated with an aqueous spore suspension of Zymoseptoria tritici either prior to or after fungicide treatments. After inoculation the plants were kept in 100% relative humidity (one day in a dark dew chamber followed by two to three days in a lighted dew chamber at 20° C.) to permit spores to germinate and infect the leaf. The plants were then transferred to a greenhouse set at 20° C. for disease to develop. When disease symptoms were fully expressed on the 1st leaves of untreated plants, infection levels were assessed on a scale of 0 to 100 percent disease severity. Percent disease control was calculated using the ratio of disease severity on treated plants relative to untreated plants. Example B: Evaluation of Fungicidal Activity: Wheat Brown Rust (Puccinia triticina; Bayer Code PUCCRT) Wheat plants (variety Yuma) were grown from seed in a greenhouse in 50% mineral soil/50% soil-less Metro mix until the first leaf was fully emerged, with 7-10 seedlings per pot. These plants were inoculated with an aqueous spore suspension of Puccinia triticina either prior to or after fungicide treatments. After inoculation the plants were kept in a dark dew room at 22° C. with 100% relative humidity overnight to permit spores to germinate and infect the leaf. The plants were then transferred to a greenhouse set at 24° C. for disease to develop. Fungicide formulation, application and disease assessment followed the procedures as described in the Example A.

Zymoseptoria tritici = assay: Leaf Blotch of Wheat (SEPTTR) fungicidal activity; type: in vivo; details: wheat leaf blotch; for pest or weed control at 121.5 g/ha: Low Volume application, 121.5 g/H; for pest or weed control at 100 ppm: High Volume application
Method: as §1, with “Example A: Evaluation of Fungicidal Activity: Leaf Blotch of Wheat (Zymoseptoria tritici; Bayer Code […]) Technical” for “Technical”, “plants.” for “plants. Example B: Evaluation of Fungicidal Activity: Wheat Brown Rust (Puccinia triticina; Bayer Code PUCCRT) Wheat plants (variety Yuma) were grown from seed in a greenhouse in 50% mineral soil/50% soil-less Metro mix until the first leaf was fully emerged, with 7-10 seedlings per pot. These plants were inoculated with an aqueous spore suspension of Puccinia triticina either prior to or after fungicide treatments. After inoculation the plants were kept in a dark dew room at 22° C. with 100% relative humidity overnight to permit spores to germinate and infect the leaf. The plants were then transferred to a greenhouse set at 24° C. for disease to develop. Fungicide formulation, application and disease assessment followed the procedures as described in the Example A.”

[1] = 24 h, 1 day protectant, read-out: PUCCRT disease control, 1DP (1 Day Protectant)
[2] = 72 h, 3 day curative, read-out: PUCCRT disease control, 3DC (3 Day Curative)
[3] = 24 h, 1 day protectant, read-out: SEPTTR disease control, 1DP (1 Day Protectant)
[4] = 72 h, 3 day curative, read-out: SEPTTR disease control, 3DC (3 Day Curative)

SMILES	pest or weed control at 121.5 g/ha (Puccinia triticina; [1]) [%]	pest or weed control at 121.5 g/ha (Puccinia triticina; [2]) [%]	pest or weed control at 121.5 g/ha (Zymoseptoria tritici; [3]) [%]	pest or weed control at 121.5 g/ha (Zymoseptoria tritici; [4]) [%]	pest or weed control at 100 ppm (Puccinia triticina; 24 h, High Volume application, 100 ppm, 1 day protectant, read-out: PUCCRT disease control, 1DP (1 Day Protectant)) [%]	pest or weed control at 100 ppm (Zymoseptoria tritici; [3]) [%]	pest or weed control at 100 ppm (Zymoseptoria tritici; [4]) [%]
CCC[C@H]1CCCC[C@H](NC(=O)c2nccc(OC)c2OCOC(C)=O)C(=O)O[C@@H](C)[C@@H]1OC(=O)C(C)C [Compound 31]	> 80	< 80	< 80	< 80	–	–	–
COc1ccc(CO[C@H]2[C@H](C)OC(=O)[C@@H](NC(=O)c3nccc(OC)c3OCOC(C)=O)CCOC[C@@H]2OCc2ccc(OC)cc2)cc1 [Compound 32]	–	< 80	–	< 80	–	–	–
COc1ccnc(C(=O)N[C@H]2CCCC[C@@H]3OC(C)(C)O[C@H]3[C@H](C)OC2=O)c1OCOC(C)=O [Compound 33]	> 80	> 80	< 80	> 80	–	–	–
COc1ccnc(C(=O)N[C@H]2CCCC[C@H](OC)[C@@H](OC3CCCC3)[C@H](C)OC2=O)c1OCOC(C)=O [Compound 34]	> 80	> 80	< 80	> 80	–	–	–
COc1ccnc(C(=O)N[C@H]2CCCC[C@H](Oc3ccccc3)[C@@H](OC3CCCC3)[C@H](C)OC2=O)c1OCOC(C)=O [Compound 36]	> 80	> 80	< 80	< 80	–	–	–
CCCOC(=O)O[C@H]1CCCC[C@H](NC(=O)c2nccc(OC)c2OCOC(C)=O)C(=O)O[C@@H](C)[C@@H]1OCC(C)C [Compound 38]	> 80	< 80	> 80	> 80	–	–	–
COc1ccnc(C(=O)N[C@H]2CCOC[C@H](OC)[C@@H](Oc3ccccc3)[C@H](C)OC2=O)c1OCOC(C)=O [Compound 40]	> 80	> 80	> 80	> 80	–	–	–
CCCO[C@H]1COCC[C@H](NC(=O)c2nccc(OC)c2OCOC(C)=O)C(=O)O[C@@H](C)[C@@H]1Oc1ccccc1 [Compound 41]	> 80	> 80	> 80	> 80	–	–	–
CCCO[C@H]1[C@H](C)OC(=O)[C@@H](NC(=O)c2nccc(OC)c2OCOC(C)=O)CCOC[C@@H]1Oc1ccccc1 [Compound 42]	> 80	< 80	< 80	< 80	–	–	–
COc1ccnc(C(=O)N[C@H]2CCOC[C@H](OC(=O)C(C)C)[C@@H](Oc3ccccc3)[C@H](C)OC2=O)c1OCOC(C)=O [Compound 44]	> 80	> 80	< 80	< 80	–	–	–
COc1ccnc(C(=O)N[C@H]2CCOC[C@H](OCC(C)C)[C@@H](Oc3ccccc3)[C@H](C)OC2=O)c1OCOC(C)=O [Compound 45]	> 80	> 80	> 80	> 80	–	–	–
COc1ccnc(C(=O)N[C@H]2CCOC[C@H](Oc3ccccc3)[C@@H](OCC(C)C)[C@H](C)OC2=O)c1OCOC(C)=O [Compound 46]	> 80	< 80	> 80	< 80	–	–	–
COc1ccnc(C(=O)N[C@H]2CCOC[C@H](Oc3ccccc3)[C@@H](Oc3ccccc3)[C@H](C)OC2=O)c1OC(C)=O [Compound 47]	> 80	> 80	> 80	> 80	–	–	–
COc1ccnc(C(=O)N[C@H]2CCOC[C@H](OC)[C@@H](Oc3ccccc3)[C@H](C)OC2=O)c1OC(C)=O [Compound 48]	> 80	> 80	> 80	> 80	–	–	–
CC(=O)OCOc1cccnc1C(=O)N[C@H]1CCCC[C@H](CC2CCCC2)[C@@H](Oc2ccccc2)[C@H](C)OC1=O [Compound 49]	> 80	< 80	< 80	–	> 80	< 80	< 80
COc1ccnc(C(=O)N[C@H]2CCCC[C@H](CC3CCCC3)[C@@H](Oc3ccccc3)[C@H](C)OC2=O)c1OCOC(C)=O [Compound 50]	> 80	> 80	> 80	< 80	–	–	–
CCOCC(=O)OCOc1c(OC)ccnc1C(=O)N[C@H]1CCCC[C@H](CC2CCCC2)[C@@H](Oc2ccccc2)[C@H](C)OC1=O [Compound 51, ((2-(((3S,8R,9R,10S)-8-(cyclopentylmethyl)-10-methyl-2-oxo-9-phenoxyoxecan-3-yl)carbamoyl)-4-methoxypyridin-3-yl)oxy)methyl 2-ethoxyacetate]	> 80	< 80	> 80	–	–	–	–
COc1ccnc(C(=O)N[C@H]2CCCC[C@H](CC3CCCC3)[C@@H](Oc3ccccc3)[C@H](C)OC2=O)c1OC(C)=O [Compound 52]	> 80	< 80	> 80	–	–	–	–
C=CCO[C@@H]1[C@@H](CC2CCCC2)CCCC[C@H](NC(=O)c2nccc(OC)c2OCOC(C)=O)C(=O)O[C@H]1C [Compound 53]	< 80	–	–	< 80	–	–	–
COc1ccnc(C(=O)N[C@H]2CCCC[C@H](CC3CCCC3)[C@@H](OC(=O)C(C)C)[C@H](C)OC2=O)c1OCOC(C)=O [Compound 54]	> 80	< 80	> 80	–	–	–	–
CCOCC(=O)OCOc1c(OC)ccnc1C(=O)N[C@H]1CCCC[C@H](CC2CCCC2)[C@@H](OC(=O)C(C)C)[C@H](C)OC1=O [Compound 55]	> 80	< 80	< 80	< 80	–	–	–
COc1ccnc(C(=O)N[C@H]2CCCC[C@H](CC3CCCC3)[C@@H](OC(=O)C(C)C)[C@H](C)OC2=O)c1OC(C)=O [Compound 56, (2S,3R,4R,9S)-9-(3-acetoxy-4-methoxypicolinamido)-4-(cyclopentylmethyl)-2-methyl-10-oxooxecan-3-yl isobutyrate]	> 80	< 80	> 80	< 80	–	–	–
CCCO[C@@H]1[C@@H](CC2CCCC2)CCCC[C@H](NC(=O)c2nccc(OC)c2OCOC(C)=O)C(=O)O[C@H]1C [Compound 57]	> 80	< 80	< 80	–	–	–	–
CCCO[C@@H]1[C@@H](CC2CCCC2)CCCC[C@H](NC(=O)c2nccc(OC)c2OC(C)=O)C(=O)O[C@H]1C [Compound 58]	> 80	< 80	< 80	< 80	–	–	–
